# Read-outs that look alike come from different tables or passages of the source.
# Tests used:
# [1] = system: ouabain-induced arrhythmias; experiment: Ouabain-induced arrhythmias in anesthetized guinea-pigs; assay type: in vivo; settings: for A-A EFFECT IN NUMBER OF ANIMALS: animals with antiarrhythmic effect / animals tested; for LOWEST FREQUENCY: frequency of ventricular premature beats after test solution; for ASYSTOLE: time of asystole under continued ouabain; for V-FIB: time of ventricular fibrillation under continued ouabain
# Method: Guinea-pigs of either.sex (300-400 g) were anesthetized with urethane 1,4 g/kg i.p. and tracheotomized. ECG, lead II was picked up with needle electrodes and was registered continuously throughout the experiment. Two i.v. catheters were inserted: one for the administration of ouabain, the other for the test solution.
# The experimental design for the study of antiarrhythmic activities is schematically shown in the head of Table 2. The arrhythmia was induced by automatic infusion of ouabain, 18 µg/kg/60" every two minutes for twelve minutes and thereafter 9 µg/kg/30" every two minutes throughout the whole experiment and the infusion was not stopped until asystole occurred. As soon as the frequency of ventricular premature beats (VPB) had passed 50 per cent, the test solution was given i.v. (0,2 ml/min) during 2 min. (see head of Table 2).
# [2] = Conscious dogs with ligation of a coronary artery according to Harris: ectopics and convulsions; assay type: in vivo; settings: in vivo
# From the text: (§1) Male beagle dogs, 7-13 kg, undergo two days prior to the test a surgical ligation of a coronary artery. On the day of the test the conscious dog is secured in a canvas sling in a standing position and given increasing doses of the test compounds by intravenous administration. ECG, blood pressure etc are monitored and attention is paid to all CNS-effects. The dogs have almost 100 percent of ectopics prior to administration of the compound to be tested. Effects of the test drug on the frequency of ectopics are calculated from ECG. The accumulative end doses giving 50% and 90% reduction of ectopics as well as the ED50 values which give convulsions (side-effect) are measured and given below in Table 3. The value for convulsions is a mean value for 3-5 dogs.
# (§2) x) The value given is the final value in a series of doses 0.5 + 1 + 2 + 4 + 8 mg/kg i.v. giving 50% reduction of ectopics. 30 min interval between doses.
# (§3) Table 3: Antiarrythmic effect and CNS-effects of four β-receptor blockers, a membrane stabilizer, and ten new compounds with combined β-blocking and membrane stabilizing effect.
# [3] = system: ectopics; experiment: as above; assay type: in vivo; settings: for ED50 / ED90: Canis lupus familiaris; for ED50: read-out: Conscious dog Harris ligation Ectopics -50%; for ED90: read-out: Conscious dog Harris ligation Ectopics -90%
# From the text: as §1, §2, §3
# [4] = Alternative chloroform test on mice: ventricular tachycardia inhibition and ataxia; assay type: in vivo; settings: mouse, in vivo
# Method: (§4) In an alternative chloroform test on mice the ventricular tachycardia inhibition by the test compounds are observed. Thereby the test solution is given subcutaneous and the animal is observed for CNS-effects for 20 min. The mouse is put into a chamber with chloroform until it stops breathing (approx 30 sec.). The animal is then secured on a cork-board and ECG is monitored. If the ventricular rythm is less than 520 beats per min., the animal was protected against ventricular tachycardia. Groups of 10 animals were tested for each dose-level'and the ED50-values have been calculated therefrom. During the test the side-effect ataxia (incordination of movements) is observed.
# (§5) In Table 5, as shown, the new compounds tested exerted antiarrhythmic effects also in this te-st.
# [5] = system: chloroform induced ventricular tachy-cardia; experiment: as above; assay type: in vivo; settings: for ED50: Mus musculus
# Method: as §4, §5
# [6] = system: chloroform-induced ventricular arrhythmias; experiment: Chloroform-induced ventricular arrhythmias (fibrillation) in mice, intraperitoneal dose; settings: for Number of Animals Dead / Number of Animals Protected: dose 100 mg/kg intraperitoneal, 10 treated; for Number of Animals Protected: protected against CHCl3-induced ventricular fibrillation; for Number of Animals Convulsive / Number of Animals LRR: mouse, in vivo, ip, 100 mg/kg
# From the text: Mice were given an intraperitoneal dose of the test compound. Twenty minutes after dose, they were suffocated in chloroform vapor.- When the animals stopped breathing, the chest was opened to inspect for fibrillation. If the heart was not fibrillating, it was prodded.
# Signs of CNS toxicity were noted during the 20-minute interval between dosing and challenge.
# "Protected" means number of animals protected against CHC13- induced ventricular fibrillation.
# [7] = iv., conscious dog, mean value for 3-5 dogs, read-out: ED50 Convulsive
# [8] = iv., accumulative end dose giving 50% reduction of ectopics
# [9] = iv., accumulative end dose giving 90% reduction of ectopics
# [10] = sc., mice, observed for 20 min, read-out: Ataxia ED50
# [11] = sc., mice, chloroform, groups of 10 animals per dose-level
structure (smiles),measurement,setting,value
CC(C)NC[C@@H](O)COc1cccc2ccccc12 [D-Propranolol],A-A EFFECT IN NUMBER OF ANIMALS,[1]; dose 0.3 mg/kg i.v.,6/8
same,A-A EFFECT IN NUMBER OF ANIMALS,[1]; dose 1.0 mg/kg i.v.,6/6
same,LOWEST FREQUENCY,[1]; dose 0.3 mg/kg i.v.,36±5%
same,LOWEST FREQUENCY,[1]; dose 1.0 mg/kg i.v.,5±3%
same,ASYSTOLE,[1]; dose 0.3 mg/kg i.v.,22 ± 1 min
same,ASYSTOLE,[1]; dose 1.0 mg/kg i.v.,29 ± 1 min
same,V-FIB,[1]; dose 0.3 mg/kg i.v.,14 ± 1 min
same,V-FIB,[1]; dose 1.0 mg/kg i.v.,23 ± 2 min
same,TD50,[2]; [7],8 mg/kg
same,ED50,[3]; [8],1 mg/kg
same,ED90,[3]; [9],4 mg/kg
same,TD50 at 20 min,[4]; [10],~30 mg/kg
same,ED50,[5]; [11],~8 mg/kg
COCCc1ccc(OCC(O)CNCCc2ccccc2)c(Br)c1 (centres unmarked) [EX 3],A-A EFFECT IN NUMBER OF ANIMALS,[1]; dose 0.3 mg/kg i.v.,5/6
same,A-A EFFECT IN NUMBER OF ANIMALS,[1]; dose 1.0 mg/kg i.v.,6/6
same,LOWEST FREQUENCY,[1]; dose 0.3 mg/kg i.v.,26±7%
same,LOWEST FREQUENCY,[1]; dose 1.0 mg/kg i.v.,13±7%
same,ASYSTOLE,[1]; dose 0.3 mg/kg i.v.,34 ± 1 min
same,ASYSTOLE,[1]; dose 1.0 mg/kg i.v.,41 ± 2 min
same,V-FIB,[1]; dose 0.3 mg/kg i.v.,27 ± 1 min
same,V-FIB,[1]; dose 1.0 mg/kg i.v.,35 ± 2 min
"COCCc1ccc(OCC(O)CNC(C)Cc2ccc(O)cc2)c(Br)c1 (centres unmarked) [EX 4, 3-[1-methyl-2-i4-hydroxyphenyl)-ethylaminol-1-[4-(2-methoxyethyl)-2-bromophenoxy]-propanol-2]",A-A EFFECT IN NUMBER OF ANIMALS,[1]; dose 0.3 mg/kg i.v.,3/6
same,A-A EFFECT IN NUMBER OF ANIMALS,[1]; dose 1.0 mg/kg i.v.,6/6
same,LOWEST FREQUENCY,[1]; dose 0.3 mg/kg i.v.,31±14%
same,LOWEST FREQUENCY,[1]; dose 1.0 mg/kg i.v.,6±3%
same,ASYSTOLE,[1]; dose 0.3 mg/kg i.v.,27 ± 1 min
same,ASYSTOLE,[1]; dose 1.0 mg/kg i.v.,41 ± 3 min
same,V-FIB,[1]; dose 0.3 mg/kg i.v.,19 ± 1 min
same,V-FIB,[1]; dose 1.0 mg/kg i.v.,31±3 (N=4) min
COCCc1ccc(OCC(O)CNCCc2ccccc2)cc1 (centres unmarked) [Ex. 1],A-A EFFECT IN NUMBER OF ANIMALS,[1]; dose 0.3 mg/kg i.v.,4/8
same,A-A EFFECT IN NUMBER OF ANIMALS,[1]; dose 1.0 mg/kg i.v.,9/9
same,LOWEST FREQUENCY,[1]; dose 0.3 mg/kg i.v.,38±13%
same,LOWEST FREQUENCY,[1]; dose 1.0 mg/kg i.v.,9±4%
same,ASYSTOLE,[1]; dose 0.3 mg/kg i.v.,28 ± 1 min
same,ASYSTOLE,[1]; dose 1.0 mg/kg i.v.,38 ± 4 min
same,V-FIB,[1]; dose 0.3 mg/kg i.v.,19 ± 1 min
same,V-FIB,[1]; dose 1.0 mg/kg i.v.,31 ± 4 min
same,Number of Animals Dead,[6],0
same,Number of Animals Protected,[6],9
same,Number of Animals Convulsive,[6],1
same,Number of Animals LRR,[6],0
"COCc1ccc(OCC(O)CNCc2ccccc2)cc1 (centres unmarked) [Ex. 6, 3-phenylmethylamino-1-[4-methoxymgthylphenoxy]-propanol-2]",TD50,"[2]; dog, iv",14 mg/kg
same,ED50,[3]; [8],8 mg/kg
same,ED90,[3]; [9],> 16 mg/kg
same,TD50 at 20 min,[4]; sc,~70 mg/kg
same,ED50,[5]; [11],~200 mg/kg
COCc1ccc(OCC(O)CNCCc2ccccc2)cc1 (centres unmarked) [Ex. 7],TD50,"[2]; dog, iv",> 8 mg/kg
same,ED50,[3]; [8],4 mg/kg
same,ED90,[3]; [9],8 mg/kg
same,TD50 at 20 min,[4]; sc,~100 mg/kg
same,ED50,[5]; [11],~50 mg/kg
"COCc1ccc(OCC(O)CNCCCCc2ccccc2)cc1 (centres unmarked) [Ex. 8, 3-[4-phenylbutylamino)-1-(4-methoxymethylphenoxy)-propanol-2]",TD50,"[2]; dog, iv",8 mg/kg
same,ED50,[3]; [8],4 mg/kg
same,ED90,[3]; [9],> 8 mg/kg
"COCCc1ccc(OCC(O)CNCc2ccccc2)cc1 (centres unmarked) [Ex. 9, 3-phenylmethylamino-1-[4-(2-methoxyethyl)phenoxy]-propanol-2]",TD50,"[2]; dog, iv",8 mg/kg
same,ED50,[3]; [8],2 mg/kg
same,ED90,[3]; [9],4 mg/kg
same,TD50 at 20 min,[4]; sc,60 mg/kg
same,ED50,[5]; [11],35 mg/kg
"COCCc1ccc(OCC(O)CNCCCc2ccccc2)cc1 (centres unmarked) [Ex. 10, 3-(3-phenylpropylamino)-1-[4-(2-methoxyethyl)phenoxy]-propanol-2]",TD50,"[2]; dog, iv",> 8 mg/kg
same,ED50,[3]; [8],2 mg/kg
same,ED90,[3]; [9],4 mg/kg
same,TD50 at 20 min,[4]; sc,> 50 mg/kg
same,ED50,[5]; [11],3 mg/kg
"COCCc1ccc(OCC(O)CNCCCCc2ccccc2)cc1 (centres unmarked) [Ex. 11, 3-(4-phenylbutylamino)-1-[4-(2-methoxyethyl)phenoxy]-propanol--2]",TD50,[2]; [7],8 mg/kg
same,ED50,[3]; [8],1 mg/kg
same,ED90,[3]; [9],2 mg/kg
same,TD50 at 20 min,[4]; [10],> 50 mg/kg
same,ED50,[5]; [11],15 mg/kg
"COCCc1ccc(OCC(O)CNCCOc2ccccc2)cc1 (centres unmarked) [Ex. 13, 3-[2-phenoxyethylamino]-1-[4-(2-methoxyethyl)phenoxy]-propanol--2]",TD50,[2]; [7],8 mg/kg
same,ED50,[3]; [8],4 mg/kg
same,ED90,[3]; [9],4 mg/kg
same,TD50 at 20 min,[4]; [10],> 12 mg/kg
same,ED50,[5]; [11],3 mg/kg
"COCCc1ccc(OCC(O)CNCCc2ccccc2)cc1 (centres unmarked) [Ex. 14, 3-(2-phenethylamino)-1-[4-(2-methoxyethyl)phenoxy]-propanol-2]",ED50 Convulsive,"[3]; dog, in vivo, iv",6 to 8 mg/kg
same,Conscious dog Harris ligation Ectopics -50%,[3]; [8],1 mg/kg
same,Conscious dog Harris ligation Ectopics -90%,[3]; [9],2 mg/kg
same,Ataxia ED50,"[5]; mouse, in vivo, sc, 20 min",40 mg/kg
same,Ventricular tachy-cardia inhibition ED50,[5]; [11],10 mg/kg
COCCc1ccc(OCC(O)CNCCCCc2ccc(OC)c(OC)c2)cc1 (centres unmarked) [Ex. 15],TD50,"[2]; dog, iv",6 mg/kg
same,ED50,[3]; [8],1 mg/kg
same,ED90,[3]; [9],4 mg/kg
same,TD50 at 20 min,[4]; sc,> 6.3 mg/kg
same,ED50,[5]; [11],1.2 mg/kg
CCN(CC)CC(=O)Nc1c(C)cccc1C [Lidocaine],A-A EFFECT IN NUMBER OF ANIMALS,[1]; dose 4.0 mg/kg i.v.,5/5
same,A-A EFFECT IN NUMBER OF ANIMALS,[1]; dose 12.0 mg/kg i.v.,5/6
same,LOWEST FREQUENCY,[1]; dose 4.0 mg/kg i.v.,10±1%
same,LOWEST FREQUENCY,[1]; dose 12.0 mg/kg i.v.,5±3%
same,ASYSTOLE,[1]; dose 4.0 mg/kg i.v.,21 ± 1 min
same,ASYSTOLE,[1]; dose 12.0 mg/kg i.v.,30 ± 3 min
same,V-FIB,[1]; dose 4.0 mg/kg i.v.,15 ± 2 min
same,V-FIB,[1]; dose 12.0 mg/kg i.v.,22 ± 3 min
same,Number of Animals Dead,[6],0
same,Number of Animals Protected,[6],5
same,Number of Animals Convulsive,[6],10
same,Number of Animals LRR,[6],10
COC(=O)NCCc1ccc(OCC(O)CNC(C)C)cc1 (centres unmarked) [Pamatolol],Number of Animals Dead,[6],0
same,Number of Animals Protected,[6],5
same,Number of Animals Convulsive,[6],0
same,Number of Animals LRR,[6],0
"CC(=O)Nc1ccc(OCC(O)CNC(C)C)cc1 (centres unmarked) [Practolol, reference compound]",TD50,[2]; [7],> 16 mg/kg
same,ED50,[3]; [8],> 16 mg/kg
same,ED90,[3]; [9],> 16 mg/kg
same,TD50 at 20 min,[4]; [10],> 50 mg/kg
same,ED50,[5]; [11],2 mg/kg
"Cc1cccc(C)c1NC(=O)C(C)N (centres unmarked) [Tocainide, reference compound]",TD50,"[2]; dog, iv",> 8 mg/kg
same,ED50,[3]; [8],4 mg/kg
same,ED90,[3]; [9],8 mg/kg
same,TD50 at 20 min,[4]; sc,130 mg/kg
same,ED50,[5]; [11],90 mg/kg

# From patent EP0007294A2, “Membrane stabilizing compounds having beta-receptor blocking activity, their preparation, method for treatment of arrhythmic conditions, and pharmaceutical preparations containing same” (priority 1978, dated 1980)
